Assays:
[1] = system: histone-deacetylase (HDAC) inhibitor query signature; assay: Original Connectivity Map (Affymetrix microarrays) queried with an HDAC-inhibitor query signature; assay type: cell-based, human; settings: published HDAC-inhibitor query signature (Glaser et al.), n=12, p-value<0.001, highest score
Description: The term “Connectivity Map” as used herein, refers to a public database of transcriptome-wide gene-expression profiles derived from cultured human cells treated with a plurality of perturbagens, and pattern-matching algorithms for the scoring and identification of significant similarities between those profiles and external gene-expression data, as described by Lamb et al., “The Connectivity Map: using gene-expression signatures to connect small molecules, genes and disease”. Science 313:1929 (2006). Build02 of the Connectivity Map contains 7,056 full-transcriptome gene-expression profiles generated with Affymetrix high-density oligonucleotide microarrays representing the biological effects of 1,309 small-molecule perturbagens, and is available at broadinstitute.org/cmap.
The term “enrichment score” as used herein, refers to a measure of the similarity of the biological effects of a perturbagen used to generate a query signature with those of a perturbagen represented in the Connectivity Map based upon the gene-expression profiles of multiple independent treatments with that perturbagen. […]

[2] = system: histone-deacetylase (HDAC) inhibitor query signature; assay: L1000 analog of Connectivity Map (1,000 landmark transcripts by LMF plus inference) queried with an HDAC-inhibitor query signature; assay type: cell-based, human; settings: L1000 dataset, MCF7 cells; published HDAC-inhibitor query signature (Glaser et al.); n=8, p-value<0.001; highest scoring perturbagen
Description: This example described one method for the generation of transcriptome-wide gene-expression profiles using measurement of the expression levels of a sub-transcriptome number of cluster centroid landmark transcripts. The present method uses the LMF moderate multiplex gene-expression analysis platform described by Peck et al. (“A method for high-throughput gene expression signature analysis” Genome Biology 7:R61 2006), the Luminex FlexMAP 3D optically-addressed microspheres and flow-cytometric detection system, 1,000 cluster centroid landmark transcripts (and corresponding gene-specific sequences) validated for LMF from Example III (above), a corresponding dependency matrix from Example III (above), 50 empirically-determined invariant transcripts with expression levels spanning the range of those observed, and 1,050 barcode sequences developed. The FlexMAP 3D system allows simultaneous quantification of 500 distinct analytes in samples arrayed in the wells of a 384-well plate. […]
MCF7 cells were treated with small molecules and corresponding vehicles in 384-well plates. […] The captured amplicons were labeled with phycoerythrin and the resulting microsphere populations were analyzed using a FlexMAP 3D instrument in accordance with the manufacturer's instructions. […]

[3] = system: canonical NF-κB signaling pathway (BIOCARTA_NFKB_PATHWAY); assay: Gene-Set Enrichment Analysis of L1000 profiles from macrophages treated with LPS; assay type: cell-based; settings: primary human macrophages, LPS versus vehicle control; L1000 inferred profiles; 512 gene sets tested; p<0.001
Experimental: The expression levels of 1,000 cluster centroid transcripts were measured in primary human macrophages following treatment with lipopolysaccharide (LPS) or vehicle control, and used to create gene-expression profiles composed of expression levels for 22,268 transcripts, according to the L1000 methods described in Example IV.
LPS is known to be a potent activator of the NF-KB transcription-factor complex (Qin et al., “LPS induces CD40 gene expression through the activation of NF-κB and STAT-1a in macrophages and microglia” Blood 106: 3114-3122 2005).

Row | Compound | enrichment score [1] | enrichment score [2] | GSEA score of the BIOCARTA_NFKB_PATHWAY gene set (23 members) [3]
1 | O=C(CCCCCCC(=O)Nc1ccccc1)NO [vorinostat] | 0.973 | 0.921 | 
2 | lipopolysaccharide [LPS] |  |  | highest score of all gene sets tested
